Literature values, collected in US12213954B2, “Colchicine solution” (PHARMA-DATA RESEARCH AND D[…] MEMBER S.A., priority 2021, dated 2025).

Details: pure colchicine

## COc1cc2c(c(OC)c1OC)-c1ccc(OC)c(=O)cc1[C@@H](NC(C)=O)CC2 [colchicine, (S)—N-(5,6,7,9-tetrahydro-1,2,3,10-tetramethoxy-9-oxo-benzo[a]heptalene-7-yl)acetamide]
  solubility in water, ethanol and chloroform (in words): well soluble
